According to article PMC11365854, “Molecular basis of hyper-thermostability in the thermophilic archaeal aldolase MfnB” (Extremophiles, 2024):
Blank lines part the entries; values can stand above or below the molecule they belong to.

What was measured:
MfnB_MM [1] = target: T1, MfnB_MM (Methanococcus maripaludis, UniProt Q6LZC1); assay: spectrophotometric, 4-HFC-P formation at […] nm; fit with substrate inhibition term; format: biochemical; settings: 45 °C (optimum), pH 7.5, 20 mM Tris–HCl, 150 mM NaCl; two substrate molecules condensed
T1 construct: gene mfnB; full length, N-terminal hexa-histidine tag (pOPINF), no tag cleavage described; codon-optimised synthetic gene, expressed in E. coli BL21 (DE3)
T1 sequence (Q6LZC1 whole entry): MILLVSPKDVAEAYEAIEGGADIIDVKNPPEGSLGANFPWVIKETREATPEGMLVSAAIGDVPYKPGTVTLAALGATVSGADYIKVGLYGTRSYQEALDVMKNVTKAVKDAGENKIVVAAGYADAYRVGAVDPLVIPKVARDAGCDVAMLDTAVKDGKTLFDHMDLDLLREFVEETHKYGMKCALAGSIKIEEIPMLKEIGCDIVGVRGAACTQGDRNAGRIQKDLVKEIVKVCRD

MfnB_MJ = target: T2, MfnB_MJ (Methanocaldococcus jannaschii, UniProt Q58499); assay: as above; format: biochemical; settings: 75 °C (optimum), pH 7.5, 20 mM Tris–HCl, 150 mM NaCl; two substrate molecules condensed; substrate inhibition constant
T2 construct: gene mfnB; full length (235 residues), N-terminal hexa-histidine tag (pOPINF), no tag cleavage described; codon-optimised synthetic gene, expressed in E. coli BL21 (DE3); homohexamer in published crystal structure

MfnB_MM [2] = target: T1, MfnB_MM; assay: as above; format: biochemical; settings: 45 °C (optimum), pH 7.5, 20 mM Tris–HCl, 150 mM NaCl; two substrate molecules condensed; substrate inhibition constant
purified protein = substrate: O=C[C@H](O)COP(=O)(O)O; assay: purified protein; format: biochemical, Methanocaldococcus jannaschii; settings: 75 °C (optimum), pH 7.5, 20 mM Tris–HCl, 150 mM NaCl, two substrate molecules condensed

Km (MfnB_MM [1]): 6.9 ± 0.6 µM
Ki (MfnB_MJ): 565.3 ± 79.7 µM
Ki (MfnB_MM [2]): 1532.0 ± 160.4 µM
Molecule: O=C[C@H](O)COP(=O)(O)O [D-GA-3-P]

B1: MfnB_MJ (Methanocaldococcus jannaschii DSM 2661) (protein)
chain: MILLVSPIDVEEAKEAIAGGADIIDVKNPKEGSLGANFPWMIKAIREVTPKDLLVSATVGDVPYKPGTISLAAVGAAISGADYIKVGLYGVKNYYQAVELMKNVVRAVKDIDENKIVVAAGYADAYRVGAVEPLIVPKIARDAGCDVAMLDTAIKDGKTLFDFQSKEILAEFVDEAHSYGLKCALAGSIKKEHIPILKEIGTDIVGVRGAACKGGDRNNGRIDRELVKELKELCK
notes: full length (235 residues), N-terminal hexa-histidine tag (pOPINF), no tag cleavage described; codon-optimised synthetic gene, expressed in E. coli BL21 (DE3); homohexamer in published crystal structure
Km (purified protein): 24.6 ± 3.1 µM
kcat (purified protein): 0.142 ± 0.0067 s⁻¹
